What all share (format): in vivo
One experiment deals with AMARE. Briefly: Pre-emergence biological efficacy (Table 3). The settings on record: Amaranthus retroflexus, 312 h, 1000 g/ha, after 13 days, read-out: evaluation (100=total damage to plant; 0=no damage to plant). Put shortly: (§1)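 Seeds sown in standard soil and sprayed one day later with compound formulated in acetone/AMA solvent-emulsifier, diluted in 0.2% Genapol X080 to the final dose. Plants grown in glasshouse at 24/18° C, 15 h light, 50% humidity. Damage scored after 13 days (0=none, 100=total).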

The subject of the next experiment is ZEAMX. Description: Pre-emergence biological efficacy (Table 3). The following applies: 312 h, 1000 g/ha, after 13 days, read-out: evaluation (100=total damage to plant; 0=no damage to plant). A digest of the protocol: as §1
The subject of the next experiment is STEME. Briefly: Pre-emergence biological efficacy (Table 3). The following applies: 312 h, after 13 days, read-out: evaluation (100=total damage to plant; 0=no damage to plant). A digest of the protocol: as §1
The subject of a further experiment is ECHCG. Description: Pre-emergence biological efficacy (Table 3). The following applies: Echinochloa crus-galli, 312 h, 1000 g/ha, after 13 days, read-out: evaluation (100=total damage to plant; 0=no damage to plant). Put shortly:
as §1

A further experiment concerns ABUTH. Briefly: Pre-emergence biological efficacy (Table 3). The following applies: Abutilon theophrasti, 312 h, after 13 days, read-out: evaluation (100=total damage to plant; 0=no damage to plant). A digest of the protocol: as §1
A further experiment has as its system IPOHE. Briefly: Pre-emergence biological efficacy (Table 3). The settings on record: Ipomoea hederacea, 312 h, 1000 g/ha, after 13 days, read-out: evaluation (100=total damage to plant; 0=no damage to plant). Put shortly: as §1
The next experiment deals with weeds and/or crops. Briefly: Post-emergence biological efficacy (Table 4). The following applies: 312 h, 1000 g/ha, evaluated after 13 days. Put shortly:
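Weeds and crops were grown 14 days in a glasshouse, then sprayed post-emergence with compound formulated in acetone/F50 and diluted in 0.2% Genapol X080 to the final dose. Damage was scored after 13 days on a 0–100 scale, where 100 is total damage.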

Where [1] appears, read: STEME, read-out: damage to plant STEME (100=total damage; 0=no damage).
Where [2] appears, read: ZEAMX, read-out: damage to plant ZEAMX (100=total damage; 0=no damage).
The mark [3] stands for this setting: Abutilon theophrasti, ABUTH, read-out: damage to plant ABUTH (100=total damage; 0=no damage).
Where [4] appears, read: Amaranthus retroflexus, AMARE, read-out: damage to plant AMARE (100=total damage; 0=no damage).
Where [5] appears, read: Echinochloa crus-galli, ECHCG, read-out: damage to plant ECHCG (100=total damage; 0=no damage).
Where [6] appears, read: Ipomoea hederacea, IPOHE, read-out: damage to plant IPOHE (100=total damage; 0=no damage).

Like-named read-outs stand apart in the source and are kept apart here.

Regarding `O=C(O)C(F)(F)c1cccc([N+](=O)[O-])c1Cl` [Compound 7-237, Ammonium 2-(2-chloro-3-nitro-phenyl)-2,2-difluoro-acetate], the pest or weed control at 1000 g/ha worked out at 0% in the experiment with AMARE; 0% with STEME; 0% in the experiment on ECHCG; 10% with ABUTH; 50% in the experiment on IPOHE; 0% with weeds and/or crops (setting [1]). Also, the pest or weed control at 1000 g/ha in the experiment with weeds and/or crops (setting [2]) worked out at 0%; in the experiment with weeds and/or crops (setting [3]), 0%; in the experiment with weeds and/or crops (setting [4]) it was 50%; in the experiment with weeds and/or crops (setting [5]), 10%; in the experiment with weeds and/or crops (setting [6]), 60%. For the same compound, the plant injury at 1000 g/ha with ZEAMX turned out to be 0%.

For `Cc1ccc2onc(C)c2c1C(F)(F)C(=O)O` [Compound 1-396, 2-(3,5-dimethylbenzo[d]isoxazol-4-yl)-2,2-difluoroacetic acid], the pest or weed control at 1000 g/ha in the experiment on AMARE, in the experiment with STEME, in the experiment with ECHCG, with ABUTH, in the experiment with IPOHE and in the experiment with weeds and/or crops (setting [1]) was 0% in each case. Moreover, the pest or weed control at 1000 g/ha in the experiment with weeds and/or crops (setting [2]) was 10%; with weeds and/or crops (setting [4]), 10%; with weeds and/or crops (setting [5]), 0%; in the experiment on weeds and/or crops (setting [6]), 60%. Besides, the plant injury at 1000 g/ha in the experiment with ZEAMX was 30%.

On to `O=C(O)C(F)(F)c1cccc2nccnc12` [Compound 1-409, 2,2-Difluoro-2-(quinoxalin-5-yl)acetic acid], for which the pest or weed control at 1000 g/ha in the experiment with AMARE was 50%; in the experiment on STEME it was 30%; in the experiment with ECHCG, 20%; with ABUTH, 70%; in the experiment on IPOHE it was 70%; with weeds and/or crops (setting [1]) it was 40%. Besides, the pest or weed control at 1000 g/ha came to 10% in the experiment on weeds and/or crops (setting [2]), 70% in the experiment with weeds and/or crops (setting [4]), 10% with weeds and/or crops (setting [5]) and 80% in the experiment with weeds and/or crops (setting [6]). Besides, in the experiment with ZEAMX, the plant injury at 1000 g/ha was 0%.

As to `O=C(O)C(F)(F)c1c(Cl)ccc2ccccc12` [Compound 1-401, 2-(2-chloronaphthalen-1-yl)-2,2-difluoroacetic acid], the pest or weed control at 1000 g/ha in the experiment on AMARE is 80%; with STEME it was 80%; in the experiment with ECHCG it was 30%; with ABUTH it was 60%; with IPOHE, 50%; with weeds and/or crops (setting [1]), 80%. In addition, the pest or weed control at 1000 g/ha came out at 10% with weeds and/or crops (setting [2]), 80% in the experiment on weeds and/or crops (setting [3]), 70% in the experiment with weeds and/or crops (setting [4]) and 80% with weeds and/or crops (setting [6]). In addition, the plant injury at 1000 g/ha in the experiment with ZEAMX was found to be 0%.

In the case of `O=C(O)C(F)(F)c1cc(Cl)cc([N+](=O)[O-])c1Cl` [Compound 1-238, 2-(2,5-Dichloro-3-nitrophenyl)-2,2-difluoroaceticacid], the pest or weed control at 1000 g/ha turned out to be 0% with AMARE; 0% in the experiment with STEME; 0% in the experiment with ECHCG; 0% in the experiment with ABUTH; 0% in the experiment on IPOHE; 40% with weeds and/or crops (setting [1]). Also, the pest or weed control at 1000 g/ha in the experiment on weeds and/or crops (setting [2]) was 0%; in the experiment on weeds and/or crops (setting [3]), 0%; in the experiment with weeds and/or crops (setting [4]), 30%; with weeds and/or crops (setting [5]), 0%; in the experiment on weeds and/or crops (setting [6]), 0%. In addition, the plant injury at 1000 g/ha with ZEAMX came out at 0%.

Values taken from patent US20240251792A1, “WEED CONTROL METHOD” (SYNGENTA CROP PROTECTION AG, priority 2021, published 2024).
